Assay results published in patent US20130252935A1, “Monobactams” (PFIZER INC., priority 2010, published 2013).
≈ marks a conversion by molar mass, not a printed value.

Columns and labels:
Type in all cases: cell-based
[1] = tested on: Pseudomonas aeruginosa UC-12120; test: minimum inhibitory concentration (MIC) testing according to CLSI guidelines, Pseudomonas aeruginosa; conditions: UC-12120, wild-type, labeled as 1091-05, overnight incubation, lower of duplicate values
Summary of the method: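 Broth dilution MIC per CLSI guidelines against wild-type P. aeruginosa UC-12120 (1091-05), using 2-fold drug dilutions and overnight incubation with visual reading of lowest growth-inhibiting concentration. Tested in duplicate; lower value reported when within 2-fold, with control organisms and reference compounds for quality control.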

[2] = tested on: Klebsiella pneumoniae 1000-02; test: minimum inhibitory concentration (MIC) testing according to CLSI guidelines, Klebsiella pneumoniae; conditions: ciprofloxacin-resistant, ESBL-expressing clinical isolate 1000-02, overnight incubation, lower of duplicate values
Summary of the method: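 MIC by CLSI broth dilution with 2-fold concentration steps and overnight incubation; lowest concentration visibly inhibiting growth versus drug-free control. Ciprofloxacin-resistant, ESBL-expressing clinical isolate 1000-02. Run in duplicate, lower value reported when within 2-fold, with QC organisms and reference compounds per run.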

[3] = tested on: Acinetobacter baumannii/haemolyticus AB-3167; test: minimum inhibitory concentration (MIC) testing according to CLSI guidelines, Acinetobacter; conditions: multidrug-resistant clinical isolate AB-3167, overnight incubation, lower of duplicate values
Summary of the method: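 Broth dilution MIC per CLSI M7-A8/M100-S20 against multidrug-resistant clinical isolate AB-3167, using 2-fold drug dilutions and overnight incubation; MIC is the lowest concentration without visible growth. Duplicates within 2-fold reported as the lower value, with control strains and reference compounds in range.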

Row | Compound | MIC ([1]; Pseudomonas aeruginosa, UC12120, read-out: AB-MBT: Pseudomonas aeruginosa 1091-05: MIC (MstRcn)) | MIC ([2]; Klebsiella pneumoniae, read-out: AB-MBT: Klebsiella pneumoniae 1000-02: MIC (MstRcnt)) | MIC ([3]; Acinetobacter baumannii, read-out: AB-MBT: Acinetobacter baumanii AB-3167: MIC (MstRcnt)) | AB-MBT: Pseudomonas aeruginosa 1091-05: MIC (MstRcn) [1] | AB-MBT: Klebsiella pneumoniae 1000-02: MIC (MstRcnt) [2] | AB-MBT: Acinetobacter baumanii AB-3167: MIC (MstRcnt) [3]
1 | CC(C)C[C@H](O/N=C(\C(=O)N[C@@H]1C(=O)N(S(=O)(=O)O)[C@@H]1CNC(=O)NCc1cc(=O)c(O)cn1O)c1csc(N)n1)C(=O)O [Example 31, (2S)-2-({[(1Z)-1-(2-amino-1,3-thiazol-4-yl)-2-({(2R,3S)-2-[({[(1,5-dihydroxy-4-oxo-1,4-dihydropyridin-2-yl)methyl]carbamoyl}amino)methyl]-4-oxo-1-sulfoazetidin-3-yl}amino)-2-oxoethylidene]amino}oxy)-4-methylpentanoic acid] | 1 µg/mL (≈ 1.51 µM) | 0.5 µg/mL (≈ 0.757 µM) | 0.5 µg/mL (≈ 0.757 µM) | – | – | –
2 | CC(C)(O/N=C(\C(=O)N[C@@H]1C(=O)N(S(=O)(=O)[O-])[C@@H]1CNC(=O)c1coc(-c2cc(=O)c(O)c[nH]2)n1)c1csc(N)n1)C(=O)[O-].[Na+].[Na+] [Example 18, 2-({[(1Z)-1-(2-amino-1,3-thiazol-4-yl)-2-({(2R,3S)-2-[({[2-(5-hydroxy-4-oxo-1,4-dihydropyridin-2-yl)-1,3-oxazol-4-yl]carbonyl}amino)methyl]-4-oxo-1-sulfoazetidin-3-yl}amino)-2-oxoethylidene]amino}oxy)-2-methylpropanoic acid, bis sodium salt] | – | – | – | 0.250 µg/mL | 0.500 µg/mL | 1.00 µg/mL
